Test results as given in patent publication US12637471B2, “Heterocyclic compounds, compositions, methods of preparation and uses thereof” (Organon R&D Finland Ltd, priority 2021, dated 2026).

Key:
Format in all cases: biochemical
[1] = molecular target: T1, Recombinant human aldo-keto reductase family 1 member C2 (AKR1C2) protein (Homo sapiens, UniProt P52895); experiment: Inhibition of the aldo-keto reductase family 1 member C2, 3H-dihydrotestosterone conversion; conditions: inhibitor at 10 μM
T1 construct: made in house; host or cells: Sf-9 insect cells (baculovirus)
T1 sequence (P52895 1-323): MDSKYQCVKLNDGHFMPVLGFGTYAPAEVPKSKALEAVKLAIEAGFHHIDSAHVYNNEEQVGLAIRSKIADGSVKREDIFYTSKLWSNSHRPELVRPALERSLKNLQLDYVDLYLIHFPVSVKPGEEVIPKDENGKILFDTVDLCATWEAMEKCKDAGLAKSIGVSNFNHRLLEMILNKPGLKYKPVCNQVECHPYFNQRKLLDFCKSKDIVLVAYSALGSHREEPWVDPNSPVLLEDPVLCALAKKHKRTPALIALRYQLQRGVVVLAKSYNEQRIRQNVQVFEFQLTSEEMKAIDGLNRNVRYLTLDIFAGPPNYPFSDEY
Experimental: Inhibition of the Aldo-Keto Reductase Family 1 Member C2
Recombinant human aldo-keto reductase family 1 member C2 (AKR1C2) protein (GenBank Accession No. NM_001354.6) produced in Sf-9 insect cells with baculovirus was used for screening. Recombinant protein (13.6 nM/0.5 μg/ml) was incubated in 20 mM KH2PO4 pH 7.4, 1 mM EDTA, complete protease inhibitor tablet, 1 mM NADPH with 6.25 nM ^3H-labelled dihydrotestosterone for 45 min at +37° C., in the presence of the potential inhibitor at 10 μM concentration. Inhibitor stock solutions were prepared in DMSO. Final concentration of DMSO was adjusted to 1% in all samples. The enzyme reaction was stopped by addition of 10% trichloroacetic acid (final concentration 1%). Samples were filtrated through […] filtration plate (Merck). Analyses of samples was done with Waters Acquity UPLC H-class equipped with XBridge C18 column and XBridge VanGuard C18 guard column. Acetonitrile: 0.1% formic acid in water (42/58 v/v) with flow of 1.2 ml/min was used for mobile phase. The eluent was mixed with scintillant and the radioactivity was monitored in the eluate by a Scintillation Analyser. The conversion percentage of triated substrate (dihydrotestosterone) to tritiated product (5α-androstane-3α,17β-diol) for each sample was determined by the relative percentages of substrate and product in the chromatogram. The inhibition percentages of samples were calculated using following formula: […]

[2] = molecular target: T2, 17β-Hydroxysteroid Dehydrogenase Type 2 Enzyme (17β-HSD2) (Homo sapiens, UniProt P37059); experiment: Inhibition of the 17β-hydroxysteroid dehydrogenase type 2 enzyme, 3H-testosterone conversion; conditions: inhibitor at 10 μM
T2 construct: made in house; host or cells: Sf-9 insect cells (baculovirus)
T2 sequence (P37059 1-387): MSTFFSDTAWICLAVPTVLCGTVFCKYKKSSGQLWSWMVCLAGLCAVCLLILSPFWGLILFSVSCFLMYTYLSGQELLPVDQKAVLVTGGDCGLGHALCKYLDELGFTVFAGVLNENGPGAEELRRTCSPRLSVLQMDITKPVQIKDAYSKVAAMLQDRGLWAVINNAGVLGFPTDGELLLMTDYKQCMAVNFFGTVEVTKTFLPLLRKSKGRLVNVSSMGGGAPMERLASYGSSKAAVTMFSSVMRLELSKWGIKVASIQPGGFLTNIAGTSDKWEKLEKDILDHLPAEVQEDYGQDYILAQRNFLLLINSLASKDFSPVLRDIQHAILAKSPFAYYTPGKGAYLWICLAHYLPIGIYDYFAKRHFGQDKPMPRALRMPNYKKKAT
Experimental: Inhibition of the 17β-Hydroxysteroid Dehydrogenase Type 2 Enzyme
Recombinant human 173-HSD2 protein (GenBank Accession No. NM_002153.3) produced in Sf-9 insect cells with baculovirus was used for screening.
Recombinant protein (105 nM/4.5 μg/ml) was incubated in 20 mM KH2PO4 pH 8.5, 1 mM EDTA, complete protease inhibitor cocktail, 1 mM NAD with 56.25 nM testosterone (including ^3H-labelled testosterone) for 30 min at RT, in the presence of the potential inhibitor at 10 μM concentration. Inhibitor stock solutions were prepared in DMSO. Final concentration of DMSO was adjusted to 1% in all samples. The enzyme reaction was stopped by addition of 10% trichloroacetic acid (final concentration 1%). Samples were filtrated through […] filtration plate. Analyses of samples was done with Waters Acquity UPLC H-class equipped with XBridge C18 column and XBridge VanGuard C18 guard column. Acetonitrile: 0.1% formic acid in water (42/58 v/v) with flow of 1.2 ml/min was used for mobile phase. The eluent was mixed with scintillant and the radioactivity was monitored in the eluate by a Scintillation Analyser. The conversion percentage of tritiated substrate (testosterone) to product tritiated (androstenedione) for each sample was determined by the relative percentages of substrate and product in the chromatogram. The inhibition percentages of samples were calculated using following formula: […]

[3] = molecular target: T3, Recombinant human AKR1C3 (17β-HSD5) protein (Homo sapiens, UniProt P42330); experiment: Inhibition of AKR1C3 (17β-hydroxysteroid dehydrogenase type 5) enzyme, fluorescence assay; conditions: inhibitor at 500 nM
T3 construct: made in house; host or cells: E. coli
T3 sequence (P42330 1-323): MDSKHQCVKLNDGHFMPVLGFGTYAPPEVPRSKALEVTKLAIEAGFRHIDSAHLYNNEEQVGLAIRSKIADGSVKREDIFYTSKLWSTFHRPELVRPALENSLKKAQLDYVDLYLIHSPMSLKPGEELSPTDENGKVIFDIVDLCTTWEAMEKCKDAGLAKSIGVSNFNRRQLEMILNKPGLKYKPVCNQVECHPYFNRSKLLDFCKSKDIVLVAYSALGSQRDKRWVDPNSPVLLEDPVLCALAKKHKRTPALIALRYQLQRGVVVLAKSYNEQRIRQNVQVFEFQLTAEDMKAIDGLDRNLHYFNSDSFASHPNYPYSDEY
Experimental: Inhibition of AKR1C3 (17β-Hydroxysteroid Dehydrogenase Type 5) Enzyme
Recombinant human AKR1C3 (17β-HSD5) protein (GenBank Accession No. NM_003739.6) produced in E. coli was used for screening. Recombinant protein (27 nM/1 μg/ml) was incubated in 20 mM KH2PO4, 1 mM EDTA, complete protease inhibitor cocktail, pH 7.4 with 1 μM 9-acetyl-2,3,6,7-tetrahydro-1H,5H,11H-pyrano[2,3-f]pyrido[3,2,1-ij]quinolin-11-one and 1 mM NADPH for 60 to 120 min at RT, in the presence of the potential inhibitor at 500 nM concentration. Inhibitor stock solutions were prepared in DMSO. Final concentration of DMSO was adjusted to 1% in all samples. The samples were analysed by fluorescent measurement with Tecan Spark microplate reader at wavelengths 420 nm for excitation and 510 nm for emission. Samples were evaluated against standards of 9-(1-hydroxyethyl)-2,3,6,7-tetrahydro-1H,5H,11H-pyrano[2,3-f]pyrido[3,2,1-ij]quinolin-11-one at concentrations 1 μM-10 nM. Background fluorescence was reduced from all the samples and standards. The concentrations of formed product were calculated from the standard curve with Tecan Spark Magellan software. The formed product concentrations were used to calculate conversion percentages. The inhibition percentages for the samples were calculated from the conversion percentages.
Inhibition percentages of samples were calculated using following formula: […]

SMILES | inhibition at 10 µM [1] | inhibition at 10 µM [2] | inhibition at 0.5 µM [3]
N#CC(=C1CCN(C(=O)N2C[C@@H]3CC[C@@H]2C3)CC1)c1ccc(F)c(F)c1 [Compound 34, 2-(1-((1R,4R)-2-azabicyclo[2.2.1]heptane-2-carbonyl)piperidin-4-ylidene)-2-(3,4-difluorophenyl)acetonitrile] | 12% | 21% | 95%
N#CC(=C1CCN(C(=O)N2CCc3sccc3C2)CC1)c1ccc(F)c(F)c1 [Compound 35, 2-(3,4-difluorophenyl)-2-(1-(4,5,6,7-tetrahydrothieno[3,2-c]pyridine-5-carbonyl)piperidin-4-ylidene)acetonitrile] | 27% | 28% | 96%
N#CC(=C1CCN(C(=O)N2CC(C#N)C2)CC1)c1ccc(F)c(F)c1 [Compound 36, 1-(4-(cyano(3,4-difluorophenyl)methylene)piperidine-1-carbonyl)azetidine-3-carbonitrile] | 10% | -3% | 94%
N#CC(=C1CCN(C(=O)N2C3CCC2COC3)CC1)c1ccc(F)cc1F [Compound 37, 2-(1-(3-oxa-8-azabicyclo[3.2.1]octane-8-carbonyl)piperidin-4-ylidene)-2-(2,4-difluorophenyl)acetonitrile] | 14% | 25% | 96%
N#CC(=C1CCN(C(=O)N2CCc3nocc3C2)CC1)c1ccc(F)cc1F [Compound 38, 2-(2,4-difluorophenyl)-2-(1-(4,5,6,7-tetrahydroisoxazolo[4,3-c]pyridine-5-carbonyl)piperidin-4-ylidene)acetonitrile] | 30% | 27% | 97%
N#CC(=C1CCN(C(=O)N2CCC(CO)CC2)CC1)c1ccc(F)cc1F [Compound 39, 2-(2,4-difluorophenyl)-2-(1-(4-(hydroxymethyl)piperidine-1-carbonyl)piperidin-4-ylidene)acetonitrile] | 13% | 6% | 96%
N#CC(=C1CCN(C(=O)N2CC(C#N)C2)CC1)c1ccc(F)cc1F [Compound 40, 1-(4-(cyano(2,4-difluorophenyl)methylene)piperidine-1-carbonyl)azetidine-3-carbonitrile] | 14% | 5% | 95%
N#CC(=C1CCN(C(=O)N2CCC(O)CC2)CC1)c1ccc(F)c(F)c1 [Compound 41, 2-(3,4-difluorophenyl)-2-(1-(4-hydroxypiperidine-1-carbonyl)piperidin-4-ylidene)acetonitrile] | 7% | 7% | 96%
N#CC(=C1CCN(C(=O)N2CCC(O)CC2)CC1)c1ccc(F)cc1F [Compound 42, 2-(2,4-difluorophenyl)-2-(1-(4-hydroxypiperidine-1-carbonyl)piperidin-4-ylidene)acetonitrile] | 11% | 10% | 96%
N#CC(=C1CCN(C(=O)N2CCc3[nH]ncc3C2)CC1)c1ccc(F)c(F)c1 [Compound 43, 2-(3,4-difluorophenyl)-2-(1-(4,5,6,7-tetrahydro-1H-pyrazolo[4,3-c]pyridine-5-carbonyl)piperidin-4-ylidene)acetonitrile] | 29% | 21% | 103%
N#CC(=C1CCN(C(=O)N2CCn3cncc3C2)CC1)c1ccc(F)c(F)c1 [Compound 44, 2-(3,4-difluorophenyl)-2-(1-(5,6,7,8-tetrahydroimidazo[1,5-a]pyrazine-7-carbonyl)piperidin-4-ylidene)acetonitrile] | 18% | 12% | 103%
N#CC(=C1CCN(C(=O)N2CCOCC2)CC1)c1cccc2[nH]ncc12 [Compound 45, 2-(1H-indazol-4-yl)-2-(1-(morpholine-4-carbonyl)piperidin-4-ylidene)acetonitrile] | 5% | 2% | 103%
N#CC(=C1CCN(C(=O)N2CCn3cncc3C2)CC1)c1ccc(Cl)cc1 [Compound 46, 2-(4-chlorophenyl)-2-(1-(5,6,7,8-tetrahydroimidazo[1,5-a]pyrazine-7-carbonyl)piperidin-4-ylidene)acetonitrile] | 8% | 11% | 102%
N#CC(=C1CCN(C(=O)N2CCc3sccc3C2)CC1)c1ccc(Cl)cc1 [Compound 47] | 9% | 20% | 103%
N#CC(=C1CCN(C(=O)N2CCC(O)CC2)CC1)c1cccc2[nH]ncc12 [Compound 48, 2-(1-(4-hydroxypiperidine-1-carbonyl)piperidin-4-ylidene)-2-(1H-indazol-4-yl)acetonitrile] | 0% | 8% | 100%
N#CC(=C1CCN(C(=O)N2CCC(CO)CC2)CC1)c1cccc2[nH]ncc12 [Compound 49, 2-(1-(4-(hydroxymethyl)piperidine-1-carbonyl)piperidin-4-ylidene)-2-(1H-indazol-4-yl)acetonitrile] | 6% | 22% | 98%
